Data on three compounds can be found in patent US9029567B2, “Hypoglycemic compounds” (Cadila Pharmaceuticals Limited, priority 2010, dated 2015).

The test has as its system Wistar female rats. As to the kind of experiment: Oral Glucose Tolerance Test in animals (in vivo screening of hypoglycemic effect). The conditions noted are these: three experiments; for % change in glucose level (Mean ± SEM) 30 Min: 30 min after glucose (2 gm/Kg, given 3 hrs after compound), oral equimolar dose (Sitagliptin 9.0, CPL-2009-0030 11.28, CPL-2009-0031 12.0 mg/kg), no treatment 199 ± 5; for % change in glucose level (Mean ± SEM) 1 Hr: 1 hr after glucose (2 gm/Kg, given 3 hrs after compound), no treatment 154 ± 4; for % change in glucose level (Mean ± SEM) 1 Hr / % change in glucose level (Mean ± SEM) 2 hr: oral equimolar dose; for % change in glucose level (Mean ± SEM) 2 hr: 2 hr after glucose (2 gm/Kg, given 3 hrs after compound), no treatment 122 ± 5. Here is the method:
The efficacy compound CPL-2009-0030 and CPL-2009-0031 were prepared as per present invention. They were evaluated through Oral Glucose Tolerance Test in animals. Each group consist of 10-12 weeks old Wistar female rats. The animals were divided into 4 different groups of 6 animals per group. The group I received vehical (WFI Placebo), Group II received Sitagliptin as positive control, Group III received CPL-2009-0030 and Group IV received CPL-2009-0031. All animals had over night fasting.
The drug was administrated as per table 01 at 0 hour to all the study group animals with 10 mL/kg of dose volume. The compounds were administered orally. The glucose (2 gm/Kg body weight) was administered 3 hrs after the administration of compounds. Blood glucose was measured at the time of administration of compound, glucose and 30 min, 1 hr, 2 hr, 3 hr and 4 hr after the glucose administration. […] The rise was maximum at 30 min after glucose administration. […] The difference between no treatment group and other three groups is maximum at 30 min and it decreases over time (FIG. 1). […] Thus, the compound of present invention reduces hyperglycaemic effect of glucose without inducing hypoglycaemia. In other words, compounds of present invention provide hypoglycaemic effect only to reduce post-prandial hyperglycaemia without inducing fasting hypoglycaemia.
To confirm the finding the experiment was repeated three times and the percentage change in glucose level over time of three experiments is presented in table 02. The repeat experiments also confirm the findings.

Turning to `CCC(C)C(N)C(=O)NC(CC(=O)N1CCn2c(nnc2C(F)(F)F)C1)Cc1cc(F)c(F)cc1F` (stereo not drawn) [CPL-2009-0030], the “% change in glucose level (Mean ± SEM) 30 Min” value (shortened to “% change … (Mean ± SEM) 30 Min”) amounted to 145 ± 13%, the “% change in glucose level (Mean ± SEM) 1 Hr” value (from here on “% change … (Mean ± SEM) 1 Hr”) is 127 ± 6% and the “% change in glucose level (Mean ± SEM) 2 hr” value (shortened to “% change … (Mean ± SEM) 2 hr”) was found to be 108 ± 5%.
For `NC(Cc1ccccc1)C(=O)NC(CC(=O)N1CCn2c(nnc2C(F)(F)F)C1)Cc1cc(F)c(F)cc1F` (stereo not drawn) [CPL-2009-0031], the “% change … (Mean ± SEM) 30 Min” value was 125 ± 3%, the “% change … (Mean ± SEM) 1 Hr” value came to 123 ± 4% and the “% change … (Mean ± SEM) 2 hr” value worked out at 110 ± 3%.
For the compound `N[C@@H](CC(=O)N1CCn2c(nnc2C(F)(F)F)C1)Cc1cc(F)c(F)cc1F` [Sitagliptin, reference compound], the “% change … (Mean ± SEM) 30 Min” value was determined as 149 ± 5%, the “% change … (Mean ± SEM) 1 Hr” value was 130 ± 4% and the “% change … (Mean ± SEM) 2 hr” value is 109 ± 2%.
